Structures can show the parent of a compound that is named as a salt.
Target: CK2A1 (CK2α/β) (Homo sapiens, UniProt P68400)
Assay: CK2 kinase assay, CK2A1 (CK2α/β)
Type: biochemical
Settings: Table A; read-out: CK2A1 (CK2α/β) (IC50)

Chain of CK2A1 (CK2α/β) (P68400 whole entry, species assumed): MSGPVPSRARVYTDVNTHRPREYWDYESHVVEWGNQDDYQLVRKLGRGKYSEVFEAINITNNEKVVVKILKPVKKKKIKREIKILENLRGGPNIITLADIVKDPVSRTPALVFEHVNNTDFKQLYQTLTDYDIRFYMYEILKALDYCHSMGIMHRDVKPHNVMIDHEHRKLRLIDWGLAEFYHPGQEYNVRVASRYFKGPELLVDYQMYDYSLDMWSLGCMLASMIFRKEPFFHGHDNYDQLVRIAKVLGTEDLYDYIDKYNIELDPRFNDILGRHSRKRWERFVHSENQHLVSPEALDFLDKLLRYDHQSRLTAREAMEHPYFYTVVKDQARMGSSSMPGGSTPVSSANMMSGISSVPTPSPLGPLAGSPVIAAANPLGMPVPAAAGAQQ
Chain of CK2A1 (CK2α/β) (P67870 whole entry partner, species assumed): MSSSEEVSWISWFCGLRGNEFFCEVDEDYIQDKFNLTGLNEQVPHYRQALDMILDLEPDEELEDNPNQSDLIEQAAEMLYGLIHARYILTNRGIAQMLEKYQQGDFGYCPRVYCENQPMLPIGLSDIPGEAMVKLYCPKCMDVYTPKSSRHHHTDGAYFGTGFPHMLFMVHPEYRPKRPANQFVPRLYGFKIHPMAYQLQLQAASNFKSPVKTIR

SMILES	IC50
COCCN(C)CC1CN(c2cc(C#N)cc(Nc3nc(NC4CC4)c4ncc(C#N)n4n3)c2Cl)CCN1C (stereo not shown) [Example 707, 2-{[2-chloro-5-cyano-3-(3-{[(2-methoxyethyl)(methyl)amino]methyl}-4-methylpiperazin-1-yl)phenyl]amino}-4-(cyclopropylamino)imidazo[2,1-f][1,2,4]triazine-7-carbonitrile]	1.35 nM
N#Cc1cc(Nc2nc(NC3CC3)c3ncc(C#N)n3n2)c(Cl)c(N2CCN([C@H]3C[C@H](O)C3)CC2)c1 [Example 102, (+/−) 2-((2-chloro-5-cyano-3-(4-(trans-3-hydroxycyclobutyl)-1-piperazinyl)phenyl)amino)-4-(cyclopropylamino) imidazo[2,1-f][1,2,4] triazine-7-carbonitrile]	1.1 nM
N#Cc1cc(Nc2nc(NC3CC3)c3ncc(C#N)n3n2)c(Cl)c(N2CCN(C(=O)CO)CC2)c1 [Example 78, 2-(2-chloro-5-cyano-3-(4-(2-hydroxyacetyl)piperazin-1-yl)phenylamino)-4-(cyclopropylamino) imidazo[1,2-f][1,2,4] triazine-7-carbonitrile]	0.41 nM
N#Cc1cc(Nc2nc(NC3CC3)c3ncc(C#N)n3n2)c(Cl)c([C@H]2CCC[C@H](NC[C@H]3CCCO3)C2)c1 [Example 728, 2-({2-chloro-5-cyano-3-[(1S,3S)-3-{[(2R)-oxolan-2-ylmethyl]amino}cyclohexyl]phenyl}amino)-4-(cyclopropylamino)imidazo [2,1-f][1,2,4]triazine-7-carbonitrile]	1.38 nM
CC[C@H]1CN(c2cc(C#N)cc(Nc3nc(NC4CC4)c4ncc(C#N)n4n3)c2Cl)CC[C@H]1NC(=O)OC (racemic) [Example 296, (+/−) methyl ((3S,4R)-1-(2-chloro-5-cyano-3-((7-cyano-4-(cyclopropylamino)imidazo[2,1-f][1,2,4]triazin-2-yl)amino)phenyl)-3-ethyl-4-piperidinyl)carbamate]	0.94 nM
N#Cc1cc(Nc2nc(NC3CC3)c3ncc(C#N)n3n2)c(Cl)c(N2CCC(NC3CCOC3)CC2)c1 (racemic) [Example 112, (+/−) 2-((2-chloro-5-cyano-3-(4-(tetrahydro-3-furanylamino)-1-piperidinyl)phenyl)amino)-4-(cyclopropylamino)imidazo [2,1-f][1,2,4]triazine-7-carbonitrile]	2.56 nM
N#Cc1cc(Nc2nc(NC3CC3)c3ncc(C#N)n3n2)c(Cl)c(N2CC[C@@H](N3CCOCC3)[C@H](O)C2)c1 (racemic) [Example 306, (+/−)-2-((2-chloro-5-cyano-3-((3R,4R)-3-hydroxy-4-morpholinopiperidin-1-yl)phenyl)amino)-4-(cyclopropylamino)imidazo[2,1-f][1,2,4]triazine-7-carbonitrile]	1.29 nM
CS(=O)(=O)NC(=O)CN1CCN(c2cc(C#N)cc(Nc3nc(NC4CC4)c4ncc(C#N)n4n3)c2Cl)CC1 [Example 607, 2-[4-(2-chloro-5-cyano-3-{[7-cyano-4-(cyclopropylamino)imidazo [2,1-f][1,2,4]triazin-2-yl]amino}phenyl)piperazin-1-yl]-N-methanesulfonamide-acetamide]	0.56 nM
N#Cc1cc(Nc2nc(NC3CC3)c3ncc(C#N)n3n2)c(Cl)c(N2CCN(C(=O)CN3CCC3)CC2)c1 [Example 584, 2-[(3-{4-[2-(azetidin-1-yl)acetyl]piperazin-1-yl}-2-chloro-5-cyanophenyl)amino]-4-(cyclopropylamino)imidazo [2,1-f][1,2,4]triazine-7-carbonitrile]	1.54 nM
C[C@@H](CN1CCN(c2cc(C#N)cc(Nc3nc(NC4CC4)c4ncc(C#N)n4n3)c2Cl)CC1)NS(C)(=O)=O [Example 69, N-((1S)-2-(4-(2-chloro-5-cyano-3-((7-cyano-4-(cyclopropylamino)imidazo[2,1-f][1,2,4]triazin-2-yl)amino)phenyl)-1-piperazinyl)-1-methylethyl) methanesulfonamide]	0.47 nM

Other lines, results leading:

IC50	SMILES
23.2 nM	COC(=O)N[C@H]1CCN(c2cc(C#N)cc(Nc3nc(NC4CC4)c4ncc(C#N)n4n3)c2Cl)C[C@@H]1N(C)CC(C)(C)O [Example 765, methyl N-[(3S,4S)-1-(2-chloro-5-cyano-3-{[7-cyano-4-(cyclopropylamino)imidazo [2,1-f][1,2,4]triazin-2-yl]amino}phenyl)-3-[(2-hydroxy-2-methylpropyl)(methyl)amino]piperidin-4-yl] carbamate]
5.2 nM	CCNc1nc(Nc2cc(C#N)cc(N3CC[C@@H](NC(=O)OC)[C@H](OC(=O)CCCCN)C3)c2Cl)nn2c(C#N)cnc12 [Example 816, (3R,4R)-1-(2-chloro-5-cyano-3-((7-cyano-4-(ethylamino)imidazo[2,1-f][1,2,4]triazin-2-yl)amino)phenyl)-4-((methoxycarbonyl)amino)piperidin-3-yl 5-aminopentanoate hydrochloride]
9 nM	CCNc1nc(Nc2cc(C#N)cc(N3CC[C@@H](NC(=O)OC)[C@H](N(C)CC(C)(C)O)C3)c2Cl)nn2c(C#N)cnc12 [Example 770, methyl N-[(3R,4R)-1-(2-chloro-5-cyano-3-{[7-cyano-4-(ethylamino)imidazo[2,1-f][1,2,4]triazin-2-yl]amino}phenyl)-3-[(2-hydroxy-2-methylpropyl)(methyl)amino]piperidin-4-yl] carbamate]
0.73 nM	N#Cc1cc(Nc2nc(NC3CC3)c3ncc(C#N)n3n2)c(Cl)c(N2CC3(CCN(CC(O)CF)CC3)C2)c1 (racemic) [Example 807, (+/−)-2-((2-chloro-5-cyano-3-(7-(3-fluoro-2-hydroxypropyl)-2,7-diazaspiro[3.5]nonan-2-yl)phenyl)amino)-4-(cyclopropylamino)imidazo[2,1-f][1,2,4]triazine-7-carbonitrile]
0.32 nM	CCNc1nc(Nc2ccc3c(c2)c(C#N)cn3C2CCN([C@H]3COC[C@@H]3O)CC2)nn2c(C#N)cnc12 [Example 826, 2-((3-cyano-1-(1-((3S,4R)-4-hydroxytetrahydrofuran-3-yl)piperidin-4-yl)-1H-indol-5-yl)amino)-4-(ethylamino)imidazo[2,1-f][1,2,4]triazine-7-carbonitrile]
6.67 nM	CN1C(=O)CNC12CCN(c1cc(C#N)cc(Nc3nc(NC4CC4)c4ncc(C#N)n4n3)c1Cl)CC2 (racemic) [Example 785, (+/−)-2-((2-chloro-5-cyano-3-(1-methyl-2-oxo-1,4,8-triazaspiro[4.5]decan-8-yl)phenyl)amino)-4-(cyclopropylamino)imidazo[2,1-f][1,2,4]triazine-7-carbonitrile]

Source: patent US9273057B2 (Bristol-Myers Squibb Company, priority 2012, dated 2016)
